# Measured values taken from patent publication US20230390352A1, “COMPOSITION COMPRISING SALVIA MILTIORRHIZA EXTRACT AS ACTIVE INGREDIENT FOR PREVENTION AND TREATMENT OF DEPRESSION IN MENOPAUSAL WOMEN” (UNDBIO.CO.,LTD, priority 2020, published 2023).
# Columns and labels:
# [1] = tested on: ER (female hormone receptor); experiment: female hormone receptor (ER) expression in MCF-7 BUS cell line by real-time PCR; type: cell-based; details: each ingredient 10 μg/mL, 72 hours
# Method: Ingredients included in the Salvia miltiorrhiza extract obtained in Example embodiment 1 were confirmed, and in ingredients cryptotanshinone, danshensu, isotanshinone, salvianolic acid B, and tanshinone IIA, female hormone regulating ability was confirmed. An MCF-7 BUS cell line used in the experiment was received from Tufts University in the United States, and incubated in a CO2 incubator maintained at 37° C. and 5% CO2 by using a Dulbecco modified eagle medium (DMEM) (Gibco, USA) added with 10% fetal bovine serum (Gibco, USA) and 1% penicillin/streptomycin (Gibco, USA).
# In the experiment, in order to evaluate the female hormone regulatory ability, the sensitivity to estrogen, one of the female hormones, was measured using the MCF-7 BUS cell line, and first, the MCF-7 BUS cell line was dispensed at 1×10^5 cells/well in a 60 mm culture dish, and then incubated in a CO2 incubator maintained at 37° C. and 5% CO2.
# After incubation for 24 hours, each ingredient was treated at a concentration of 10 μg/mL, and 17β-Estradiol (E2) was treated with 10^−10 M as a positive control.
# At this time, each primer was prepared by Takara, and ER was prepared with Forward primer: […] […] A CT value obtained through RT-PCR was converted into ΔCT, and this ΔCT value was analyzed through a change rate of an experimental group with respect to the control group, which was illustrated in FIG. 1.
# [2] = stability (content) of ingredients included in the Salvia miltiorrhiza extract on storage; type: physicochemical; details: for Content (mg/g) of ingredient after 5 days of storage at room temperature of extract: 5 days at room temperature; for Content (mg/g) of ingredient in Salvia miltiorrhiza extract: before storage
# Method: When the Salvia miltiorrhiza extract was stored at 95° C. for 0 hour, 1 hour, 2 hours, 3 hours, 4 hours and 6 hours, in order to confirm whether the stability of 5 types of ingredients of which the female hormone regulatory ability has been confirmed in Example embodiment 2-1 above was maintained, the ingredient contents of the stored samples were analyzed by time. In addition, when the Salvia miltiorrhiza extract was stored at room temperature for 1 day, 2 days, 3 days, 4 days and 5 days, the stability of the ingredients was confirmed through analysis of the contents of 5 types of ingredients included in the Salvia miltiorrhiza extract.
# In addition, results of comparing the content of each ingredient included in the Salvia miltiorrhiza extract at various concentrations (0, 50, 70, and 100% ethanol) and the content after 5 days of storage at room temperature were shown together in Table 1 below.
# [3] = tested on: natural aging-induced menopausal animal model; experiment: antidepressant efficacy verification experiment in natural aging-induced menopausal animal model (summary); type: in vivo; details: antidepressant refractory animal model
# Source text: Accordingly, the Salvia miltiorrhiza extract of the present disclosure may be administered to patients with resistance to benzodiazepine or imipramine, and may be used to treat depression that is resistant to the drug.
SMILES,"female hormone receptor regulating effect (ER mRNA change rate, FIG. 1) [1]",Content (mg/g) of ingredient after 5 days of storage at room temperature of extract ([2]; extract made with 0% EtOH),Content (mg/g) of ingredient in Salvia miltiorrhiza extract ([2]; extract made with 0% EtOH),Content (mg/g) of ingredient after 5 days of storage at room temperature of extract ([2]; extract made with 50% EtOH),Content (mg/g) of ingredient in Salvia miltiorrhiza extract ([2]; extract made with 50% EtOH),Content (mg/g) of ingredient after 5 days of storage at room temperature of extract ([2]; extract made with 70% EtOH),Content (mg/g) of ingredient in Salvia miltiorrhiza extract ([2]; extract made with 70% EtOH),Content (mg/g) of ingredient after 5 days of storage at room temperature of extract ([2]; extract made with 100% EtOH),Content (mg/g) of ingredient in Salvia miltiorrhiza extract ([2]; extract made with 100% EtOH),antidepressant effect in natural aging-induced menopausal animal model [3]
O=C(O)[C@H](O)Cc1ccc(O)c(O)c1 [Danshensu],most remarkable female hormone receptor regulating effect,0.32 mg/g,0.34 mg/g,1.22 mg/g,1.28 mg/g,24.19 mg/g,25.17 mg/g,17.33 mg/g,18.32 mg/g,
Cc1coc2c1C(=O)c1ccc3c(C)cccc3c1C2=O [Isotanshinone],,0.99 mg/g,2.22 mg/g,5.62 mg/g,12.31 mg/g,12.11 mg/g,14.23 mg/g,10.33 mg/g,12.22 mg/g,
O=C(/C=C/c1ccc(O)c2c1[C@H](C(=O)O[C@H](Cc1ccc(O)c(O)c1)C(=O)O)[C@@H](c1ccc(O)c(O)c1)O2)O[C@H](Cc1ccc(O)c(O)c1)C(=O)O [Salvianolic acid B],,18.33 mg/g,21.2 mg/g,26.21 mg/g,38.23 mg/g,23.21 mg/g,33.1 mg/g,15.27 mg/g,20.3 mg/g,
Cc1coc2c1C(=O)C(=O)c1c-2ccc2c1CCCC2(C)C [Tanshinone IIA],,0.65 mg/g,1.33 mg/g,4.11 mg/g,5.21 mg/g,4.33 mg/g,7.22 mg/g,5.24 mg/g,8.33 mg/g,
CN(C)CCCN1c2ccccc2CCc2ccccc21 [imipramine],,,,,,,,,,insufficient antidepressant effect
